The subject of this data set is rodent carcinogenicity bioassays, tumor incidence. Description: CCRIS carcinogenicity studies. Summed up:
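Archive of carcinogenicity, mutagenicity, tumor promotion and tumor inhibition results drawn from journals, NCI reports and other sources, expert-reviewed; covers 1985-2011 and is no longer updated.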

The source made the active and inactive calls. The rule behind the calls is not given here.

Take `Oc1ccc(Cl)cc1Cc1ccccc1`: the carcinogen call is “inactive; negative” (Species: MOUSE, Strain/Sex: B6C3F1/FEMALE, Route: GAVAGE, Dose: 0, 120, 240, 480 MG/KG BW IN CORN OIL 5 D/WK FOR 103 WK (STUDY DURATION: 2 YR), Dose: 0, 120, 240, 480 MG/KG BW IN CORN OIL 5 D/WK FOR 103 WK (STUDY DURATION: 2 YR)); “active; positive” (Species: MOUSE, Strain/Sex: B6C3F1/MALE, Route: GAVAGE, Dose: 0, 120, 240, 480 MG/KG BW IN CORN OIL 5 D/WK FOR 103 WK (STUDY DURATION: 2 YR), Dose: 0, 120, 240, 480 MG/KG BW IN CORN OIL 5 D/WK FOR 103 WK (STUDY DURATION: 2 YR), Tumor Site: Type of Lesion: KIDNEY (RENAL TUBULE): ADENOMA, ADENOMA OR CARCINOMA); “inactive; negative” (Species: MOUSE, Strain/Sex: CD-1/FEMALE, Route: DERMAL, Dose: 10 MG IN ACETONE ONCE FOLLOWED BY 0.1, 1, 3 MG 3/WK FOR 51 WK (STUDY DURATION: 52 WK), Dose: 10 MG IN ACETONE ONCE FOLLOWED BY 0.1, 1, 3 MG 3/WK FOR 51 WK (STUDY DURATION: 52 WK)); “inactive; negative” (Species: MOUSE, Strain/Sex: CD-1/MALE, Route: DERMAL, Dose: 10 MG IN ACETONE ONCE FOLLOWED BY 0.1, 1, 3 MG 3/WK FOR 51 WK (STUDY DURATION: 52 WK), Dose: 10 MG IN ACETONE ONCE FOLLOWED BY 0.1, 1, 3 MG 3/WK FOR 51 WK (STUDY DURATION: 52 WK)); “equivocal” (Species: RAT, Strain/Sex: F344/FEMALE, Route: GAVAGE, Dose: 0, 30, 60, 120 MG/KG BW IN CORN OIL 5 D/WK FOR 103 WK (STUDY DURATION: 105 WK), Dose: 0, 30, 60, 120 MG/KG BW IN CORN OIL 5 D/WK FOR 103 WK (STUDY DURATION: 105 WK), Tumor Site: Type of Lesion: KIDNEY (TRANSITIONAL CELL): CARCINOMA); “inactive; negative” (Species: RAT, Strain/Sex: F344/MALE, Route: GAVAGE, Dose: 0, 30, 60, 120 MG/KG BW IN CORN OIL 5 D/WK FOR 103 WK (STUDY DURATION: 2 YR), Dose: 0, 30, 60, 120 MG/KG BW IN CORN OIL 5 D/WK FOR 103 WK (STUDY DURATION: 2 YR)).
Turning to `O=C(Nc1ccc([N+](=O)[O-])cc1Cl)c1cc(Cl)ccc1O`, the carcinogen call by setting is: (Species: MOUSE, Strain/Sex: B6C3F1/FEMALE, Route: ORAL, Dose: 0, 274, 549 PPM IN DIET FOR 78 WK (STUDY DURATION: 91-92 WK), Dose: 0, 274, 549 PPM IN DIET FOR 78 WK (STUDY DURATION: 91-92 WK)) “inactive; negative”; (Species: RAT, Strain/Sex: OSBORNE-MENDEL/FEMALE, Route: ORAL, Dose: 0, 14216, 28433 PPM IN DIET FOR 78 WK (STUDY DURATION: 110-111 WK), Dose: 0, 14216, 28433 PPM IN DIET FOR 78 WK (STUDY DURATION: 110-111 WK), Tumor Site: Type of Lesion: MAMMARY GLAND: ADENOCARCINOMA, STOMACH: CARCINOMA) “equivocal”; (Species: RAT, Strain/Sex: OSBORNE-MENDEL/MALE, Route: ORAL, Dose: 0, 14216, 28433 PPM IN DIET FOR 78 WK (STUDY DURATION: 110-111 WK), Dose: 0, 14216, 28433 PPM IN DIET FOR 78 WK (STUDY DURATION: 110-111 WK)) “inactive; negative”.
As to `Nc1ccc(N=Nc2ccccc2)cc1`, the carcinogen call is, setting by setting: (Species: MOUSE, Strain/Sex: B6C3F1/FEMALE, Route: INTRAPERITONEAL, Dose: 0, 0.3 UMOL/G IN TRIOCTANOIN ONCE ON DAY 1 FOLLOWED BY 0.4 UMOL/G ONCE ON DAY 8, 15 AND 22 (STUDY DURATION: UP TO 10 MO)) “inactive; negative”; (Species: MOUSE, Strain/Sex: B6C3F1/MALE, Route: INTRAPERITONEAL, Dose: 0, 0.017, 0.05, 0.15, 0.45 UMOL/G ONCE IN TRIOCTANOIN (STUDY DURATION: 10 MO), Dose: 0, 0.017, 0.05, 0.15, 0.45 UMOL/G ONCE IN TRIOCTANOIN (STUDY DURATION: 10 MO), Tumor Site: Type of Lesion: LIVER: HEPATOMA) “active; positive”; (Species: MOUSE, Strain/Sex: B6C3F1/MALE, Route: INTRAPERITONEAL, Dose: 0, 0.3 UMOL/G IN TRIOCTANOIN ONCE ON DAY 1 FOLLOWED BY 0.4 UMOL/G ONCE ON DAY 8, 15 AND 22 (STUDY DURATION: UP TO 10 MO), Tumor Site: Type of Lesion: LIVER: HEPATOMA) “active; positive”; (Species: MOUSE, Strain/Sex: C3H/MALE, Route: INTRAPERITONEAL, Dose: 0, 0.45 UMOL/G ONCE IN TRIOCTANOIN (STUDY DURATION: 11 MO), Tumor Site: Type of Lesion: LIVER: HEPATOMA) “active; positive”; (Species: MOUSE, Strain/Sex: C57BL/MALE, Route: INTRAPERITONEAL, Dose: 0, 0.45 UMOL ONCE IN TRIOCTANOIN (STUDY DURATION: 11 MO), Tumor Site: Type of Lesion: LIVER: HEPATOMA) “active; positive”; (Species: RAT, Route: DERMAL, Tumor Site: Type of Lesion: INTEGUMENTARY SYSTEM (SKIN)) “active; positive”. Moreover, the carcinogen call by setting is: (Species: RAT, Route: ORAL, Tumor Site: Type of Lesion: LIVER) “active; positive”; (Species: RAT, Strain/Sex: F344/MALE, Route: INTRAPERITONEAL, Dose: 0, 0.3 UMOL/G IN TRIOCTANOIN ONCE ON DAY 1 FOLLOWED BY 0.4 UMOL/G ONCE ON D 8, 15 AND 22 (STUDY DURATION: 24 MO)) “inactive; negative”.
`CCC(Cl)C(Cl)C(Cl)CC(Cl)C(Cl)C(C)Cl` (stereo not given): the carcinogen call is “active; positive” (Species: MOUSE, Strain/Sex: B6C3F1/FEMALE, Route: GAVAGE, Dose: 0, 125, 250 MG/KG IN CORN OIL 5 D/WK FOR 103 WK, Dose: 0, 125, 250 MG/KG IN CORN OIL 5 D/WK FOR 103 WK, Tumor Site: Type of Lesion: LIVER: HEPATOCELLULAR ADENOMA, HEPATOCELLULAR ADENOMA OR CARCINOMA, THYROID GLAND: FOLLICULAR CELL ADENOMA, FOLLICULAR C); “active; positive” (Species: MOUSE, Strain/Sex: B6C3F1/MALE, Route: GAVAGE, Dose: 0, 125, 250 MG/KG IN CORN OIL 5 D/WK FOR 103 WK, Dose: 0, 125, 250 MG/KG IN CORN OIL 5 D/WK FOR 103 WK, Tumor Site: Type of Lesion: LIVER: HEPATOCELLULAR ADENOMA, HEPATOCELLULAR ADENOMA OR CARCINOMA); “active; positive” (Species: RAT, Strain/Sex: F344/FEMALE, Route: GAVAGE, Dose: 0, 312, 625 MG/KG IN CORN OIL 5 D/WK FOR 104 WK, Dose: 0, 312, 625 MG/KG IN CORN OIL 5 D/WK FOR 104 WK, Tumor Site: Type of Lesion: LIVER: NEOPLASTIC NODULE, NEOPLASTIC NODULE OR HEPATOCELLULAR CARCINOMA, THYROID GLAND: FOLLICULAR CELL ADENOMA OR CARCI); “active; positive” (Species: RAT, Strain/Sex: F344/MALE, Route: GAVAGE, Dose: 0, 312, 625 MG/KG IN CORN OIL 5 D/WK FOR 104 WK, Dose: 0, 312, 625 MG/KG IN CORN OIL 5 D/WK FOR 104 WK, Tumor Site: Type of Lesion: LIVER: NEOPLASTIC NODULE, NEOPLASTIC NODULE OR HEPATOCELLULAR CARCINOMA, KIDNEY: TUBULAR CELL ADENOMA OR ADENOCARCINOMA).
Consider `Cc1nc(N)cc2[nH]c3ccccc3c12`, for which the carcinogen call reads like this: (Species: MOUSE, Strain/Sex: CDF1/FEMALE, Route: ORAL, Dose: 0, 200 PPM IN DIET FOR 621 D, Tumor Site: Type of Lesion: LIVER: HEPATOCELLULAR CARCINOMA) “active; positive”; (Species: MOUSE, Strain/Sex: DDY/FEMALE, Route: BLADDER IMPLANT, Dose: 0, 5% IN PARAFFIN PELLET (STUDY DURATION: 40 WK), Tumor Site: Type of Lesion: URINARY BLADDER: TRANSITIONAL CELL CARCINOMA) “active; positive”; (Species: RAT, Strain/Sex: F344/FEMALE, Route: ORAL, Dose: 0, 30, 100 PPM IN DIET FOR 112 WK (STUDY DURATION: 112 WK), Dose: 0, 30, 100 PPM IN DIET FOR 112 WK (STUDY DURATION: 112 WK), Tumor Site: Type of Lesion: MAMMARY GLAND: FIBROADENOMA OR FIBROMA, HEMATOPOIETIC SYSTEM: MALIGNANT LYMPHOMA, CLITORAL GLAND: ADENOMA, Tumor Site: Type of Lesion: MAMMARY GLAND: FIBROADENOMA OR FIBROMA, HEMATOPOIETIC SYSTEM: MALIGNANT LYMPHOMA, CLITORAL GLAND: ADENOMA) “active; positive”; (Species: RAT, Strain/Sex: F344/MALE, Route: ORAL, Dose: 0, 30, 100 PPM IN DIET FOR 112 WK (STUDY DURATION: 112 WK), Dose: 0, 30, 100 PPM IN DIET FOR 112 WK (STUDY DURATION: 112 WK), Tumor Site: Type of Lesion: LIVER: HEPATOCELLULAR ADENOMA, URINARY BLADDER: TRANSITIONAL CELL PAPILLOMA, MAMMARY GLAND: FIBROADENOMA OR FIBROMA, Tumor Site: Type of Lesion: LIVER: HEPATOCELLULAR ADENOMA, URINARY BLADDER: TRANSITIONAL CELL PAPILLOMA, MAMMARY GLAND: FIBROADENOMA OR FIBROMA) “active; positive”.

These data come from PubChem BioAssay AID1259411 (Chemical Carcinogenesis Research Information System (CCRIS), 2018).
